Measurements reported in patent US20260317340A1, “COMPOUNDS, COMPOSITIONS, AND METHODS OF TREATING DISORDERS” (Chengdu Anticancer Bioscience, Ltd., priority 2023, published 2026).
Read-outs that look alike come from different tables or passages of the source.

Columns and labels:
RPE-Neo or RPE-MYC cells = experiment: MTT assay of cellular proliferation (proliferative arrest); format: cell-based; settings: read-out: Min. Effective conc. for Proliferative arrest (>50%)
Description: (§1) Human cancer cell lines were obtained from ATCC and cultured in DMEM (Gibco, Cleveland, TN, USA) supplemented with 5% fetal bovine serum (Gibco), penicillin (100 U/mL)-streptomycin (100 μg/mL) (Gibco, Cat. No. 15140-122), 2 mM L-glutamine (Gibco, 200 mM solution, Cat. No. 25030081), and 1 mM sodium pyruvate (Gibco, 100 mM solution, Cat. No. 11360070) at 37° C. in a humidified incubator that was maintained at 5% CO2.
Screening was conducted as described before (Li et al. 2019). Briefly, RPE-Neo or RPE-MYC or RPE-MYC expressing an EGFP-Histone 2B fusion protein were passaged as batches of 96-well plates, 18-24 hours before exposure to the chemical compounds of the present disclosure at concentrations from 20 nM to 20 μM. At 24, 48 or 72 hours after initiation of treatment, cells were analyzed for either an arrest in mitosis or a change in DNA content by GE IN-Cell Analyzer 2000. MTT assays of cellular proliferation were performed as previously described (Li et al. 2019). […]
(§2) As set forth in table 2 below, an values of greater than or equal to 1 nM and less than or equal to 1.0 μM is marked “A”; a value greater than 1.00 μM and less than or equal to 10.0 μM is marked “B”; a value greater than 10.0 μM and less than or equal to 30.0 μM is marked “C”; and a value greater than 30.0 μM and less than 1000 μM is marked “D.”

[1] = system: RPE-Neo or RPE-MYC or RPE-MYC expressing an EGFP-Histone 2B fusion protein; experiment: Phenotypic screening assay: arrest in mitosis, change in DNA content (polyploidy), cell death; format: cell-based; settings: 20 nM to 20 μM, 24, 48 or 72 hours
Description: as §1
Screening was conducted as described before (Li et al. 2019). Briefly, RPE-Neo or RPE-MYC or RPE-MYC expressing an EGFP-Histone 2B fusion protein were passaged as batches of 96-well plates, 18-24 hours before exposure to the chemical compounds of the present disclosure at concentrations from 20 nM to 20 μM. At 24, 48 or 72 hours after initiation of treatment, cells were analyzed for either an arrest in mitosis or a change in DNA content by GE IN-Cell Analyzer 2000. MTT assays of cellular proliferation were performed as previously described (Li et al. 2019).
as §2

[2] = read-out: Min. Effective conc. for Along with Cell Death
[3] = ≥5%, read-out: Min. Effective conc. for Mitotic Arrest (≥5%)
[4] = ≥5%, read-out: Min. Effective conc. for Polyploidy (≥5%)

Measured: minimal effective concentration

CCOC(=O)Cn1cc(-c2ccc3c(c2)N(Cc2ccc(OC)cc2)C(=O)CC(c2ncc(C)o2)=C3)cn1 [Compound 71, Ethyl 2-(4-(1-(4-methoxybenzyl)-4-(5-methyloxazol-2-yl)-2-oxo-2,3-dihydro-1H-benzo[b]azepin-8-yl)-1H-pyrazol-1-yl)acetate]
0.001 to 1 µM: RPE-Neo or RPE-MYC cells | [1]; [2] | [1]; [3] | [1]; [4]

COc1ccc(CN2C(=O)CC(c3nnc(C)o3)=Cc3ccc(-c4cnn(CC(C)(C)O)c4)cc32)cc1 [Compound 93, 8-(1-(2-Hydroxy-2-methylpropyl)-1H-pyrazol-4-yl)-1-(4-methoxybenzyl)-4-(5-methyl-1,3,4-oxadiazol-2-yl)-1,3-dihydro-2H-benzo[b]azepin-2-one]
0.001 to 1 µM: RPE-Neo or RPE-MYC cells | [1]; [2] | [1]; [3] | [1]; [4]

COc1ccc(CN2C(=O)CC(c3ncc(C)o3)=Cc3ccccc32)cc1 [Compound 24, 1-(4-methoxybenzyl)-4-(5-methyloxazol-2-yl)-1,3-dihydro-2H-benzo[b]azepin-2-one]
0.001 to 1 µM: RPE-Neo or RPE-MYC cells | [1]; [2] | [1]; [3] | [1]; [4]

COc1ccc(CN2C(=O)CC(c3ncc(C)o3)=Cc3ccc(-c4cnn(CC(C)(C)O)c4)cc32)cc1F [Compound 102, 1-(3-fluoro-4-methoxybenzyl)-8-(1-(2-hydroxy-2-methylpropyl)-1H-pyrazol-4-yl)-4-(5-methyloxazol-2-yl)-1,3-dihydro-2H-benzo[b]azepin-2-one]
0.001 to 1 µM: RPE-Neo or RPE-MYC cells | [1]; [2] | [1]; [3] | [1]; [4]

COc1ccc(CN2C(=O)CC(c3ncc(C)o3)=Cc3ccc(-c4cnn(CCN5CCCC5)c4)cc32)cc1 [Compound 64, 1-(4-methoxybenzyl)-4-(5-methyloxazol-2-yl)-8-(1-(2-(pyrrolidin-1-yl)ethyl)-1H-pyrazol-4-yl)-1,3-dihydro-2H-benzo[b]azepin-2-one]
0.001 to 1 µM: RPE-Neo or RPE-MYC cells | [1]; [2] | [1]; [3] | [1]; [4]

COc1ccc(CN2C(=O)CC(c3ncc(C)o3)=Cc3ccc(N)cc32)cc1 [Compound 26, 8-amino-1-(4-methoxybenzyl)-4-(5-methyloxazol-2-yl)-1,3-dihydro-2H-benzo[b]azepin-2-one]
0.001 to 1 µM: RPE-Neo or RPE-MYC cells | [1]; [2] | [1]; [3] | [1]; [4]

COc1ccc(CN2C(=O)CC(c3ncc(C)o3)=Cc3ccc(-c4ccc(C5CC5)nc4)cc32)cc1 [Compound 43, 8-(6-cyclopropylpyridin-3-yl)-1-(4-methoxybenzyl)-4-(5-methyloxazol-2-yl)-1,3-dihydro-2H-benzo[b]azepin-2-one]
0.001 to 1 µM: RPE-Neo or RPE-MYC cells | [1]; [2] | [1]; [3] | [1]; [4]

COc1ccc(CN2C(=O)CC(c3ncc(C)o3)=Cc3ccc(-c4cn[nH]c4)cc32)cc1 [Compound 33, 1-(4-methoxybenzyl)-4-(5-methyloxazol-2-yl)-8-(1H-pyrazol-4-yl)-1,3-dihydro-2H-benzo[b]azepin-2-one]
0.001 to 1 µM: RPE-Neo or RPE-MYC cells | [1]; [2] | [1]; [3] | [1]; [4]

COc1ccc(CN2C(=O)CC(c3nnc(C4CC4)o3)=C(Br)c3ccccc32)c(F)c1 [Compound 5, 5-Bromo-4-(5-cyclopropyl-1,3,4-oxadiazol-2-yl)-1-(2-fluoro-4-methoxybenzyl)-1,3-dihydro-2H-benzo[b]azepin-2-one]
0.001 to 1 µM: RPE-Neo or RPE-MYC cells | [1]; [2] | [1]; [3] | [1]; [4]

COc1ccc(CN2C(=O)CC(c3ncc(C)o3)=Cc3ccc(-c4cnn(CC(=O)N(C)C)c4)cc32)cc1 [Compound 73, 2-(4-(1-(4-Methoxybenzyl)-4-(5-methyloxazol-2-yl)-2-oxo-2,3-dihydro-1H-benzo[b]azepin-8-yl)-1H-pyrazol-1-yl)-N,N-dimethylacetamide]
0.001 to 1 µM: RPE-Neo or RPE-MYC cells | [1]; [2] | [1]; [3] | [1]; [4]

COc1ccc(CN2C(=O)CC(c3nnc(C4CC4)o3)=Cc3ccc(-c4cnn(CCN5CCOCC5)c4)cc32)cc1 [Compound 52, 4-(5-cyclopropyl-1,3,4-oxadiazol-2-yl)-1-(4-methoxybenzyl)-8-(1-(2-morpholinoethyl)-1H-pyrazol-4-yl)-1,3-dihydro-2H-benzo[b]azepin-2-one]
0.001 to 1 µM: RPE-Neo or RPE-MYC cells | [1]; [2] | [1]; [3] | [1]; [4]

COc1ccc(CN2C(=O)CC(c3ncc(C)o3)=Cc3ccc(-c4cnn(C5(CC#N)CN(S(C)(=O)=O)C5)c4)cc32)cc1 [Compound 87, 2-(3-(4-(1-(4-Methoxybenzyl)-4-(5-methyloxazol-2-yl)-2-oxo-2,3-dihydro-1H-benzo[b]azepin-8-yl)-1H-pyrazol-1-yl)-1-(methylsulfonyl)azetidin-3-yl)acetonitrile]
0.001 to 1 µM: RPE-Neo or RPE-MYC cells | [1]; [2] | [1]; [3] | [1]; [4]

COc1ccc(CN2C(=O)CC(c3ncc(C)o3)=Cc3ccc(-c4cnn(C5CCNCC5)c4)cc32)cc1 [Compound 35, 1-(4-methoxybenzyl)-4-(5-methyloxazol-2-yl)-8-(1-(piperidin-4-yl)-1H-pyrazol-4-yl)-1,3-dihydro-2H-benzo[b]azepin-2-one]
0.001 to 1 µM: RPE-Neo or RPE-MYC cells | [1]; [2] | [1]; [3] | [1]; [4]

COc1ccc(C(=O)N2CCC(c3ncc(C)o3)=Cc3ccc(-c4cnn(CC(C)(C)O)c4)cc32)cn1 [Compound 105, (8-(1-(2-Hydroxy-2-methylpropyl)-1H-pyrazol-4-yl)-4-(5-methyloxazol-2-yl)-2,3-dihydro-1H-benzo[b]azepin-1-yl)(6-methoxypyridin-3-yl)methanone]
0.001 to 1 µM: RPE-Neo or RPE-MYC cells | [1]; [2] | [1]; [3] | [1]; [4]

COCCCCn1cc(-c2ccc3c(c2)N(Cc2ccc(OC)cc2)C(=O)CC(c2ncc(C)o2)=C3)cn1 [Compound 79, 1-(4-methoxybenzyl)-8-(1-(4-methoxybutyl)-1H-pyrazol-4-yl)-4-(5-methyloxazol-2-yl)-1,3-dihydro-2H-benzo[b]azepin-2-one]
0.001 to 1 µM: RPE-Neo or RPE-MYC cells | [1]; [2] | [1]; [3] | [1]; [4]

COc1ccc(CN2C(=O)CC(c3ncc(C)o3)=Cc3ccc(-c4cnn(C5CCOCC5)c4)cc32)cc1 [Compound 49, 1-(4-methoxybenzyl)-4-(5-methyloxazol-2-yl)-8-(1-(tetrahydro-2H-pyran-4-yl)-1H-pyrazol-4-yl)-1,3-dihydro-2H-benzo[b]azepin-2-one]
0.001 to 1 µM: RPE-Neo or RPE-MYC cells | [1]; [2] | [1]; [3] | [1]; [4]
